# Measured values from patent US20210369874A1, “COMPOSITION FOR DETECTING BIOFILMS ON VIABLE TISSUES” (CONVATEC TECHNOLOGIES INC., priority 2010, published 2021).
# Where “and” joins values, the source holds several entries; their conditions need not be identical. Identical values can stand only once.
# Assays:
# Format in all cases: cell-based
# S. aureus biofilms = experiment: Rose Bengal staining of biofilms, membrane filter biofilm model (S. aureus); details: 30 seconds
# Description: (§1) A membrane filter biofilm model was used to study the effect of Rose Bengal concentration on the efficacy of biofilm staining. Briefly, a 5 μl volume of a 5×10^5 cfu/ml suspension of S. aureus or P. aeruginosa was added to the centre of sterile membrane filter discs (pore size 0.2 μm; Anodise, Whatman) which were placed onto 7 ml volumes of sterile Tryptic Soya Broth in lidded 6-well plates. Samples were incubated for 4 hours (immature biofilms), and 24 and 48 hours (mature biofilms), and excess planktonic cells were rinsed from the filters. The biofilms on the filters were stained by pipetting 2 ml volumes of Rose Bengal (60 μM or 300 μM) or saline (negative control) for 30 seconds, followed by rinsing. Rose Bengal was recovered from the biofilm samples by stomaching and overnight digestion in 2% sodium dodecyl sulphate, centrifugation, then measuring of absorption spectra in a UV-vis spectrophotometer. Rose Bengal uptake per sample was determined by comparison of absorption values with a standard curve of Rose Bengal in 2% SDS. […] Only at the highest concentrations of 300 μM did the immature, 4-hour biofilms appear to be stained, although this was likely due to some staining of the filters themselves. […] This simple method for quantifying the uptake of Rose Bengal by biofilms utilises the absorption spectra of the dye. Using the absorption spectra to quantify the dye is similar to detecting the fluorescence using a light source with optical filters. Uptake could then alternatively be observed qualitatively using the naked eye or by observing the fluorescence emission of the Rose Bengal in conjunction with a light source and optical filter.
# P. aeruginosa biofilms = experiment: Rose Bengal staining of biofilms, membrane filter biofilm model (P. aeruginosa); details: 30 seconds
# Description: as §1
# [1] = test system: mixed biofilms of Staphylococcus aureus and Pseudomonas aeruginosa; experiment: Assessment of biofilm stains using the CDC biofilm reactor; details: 100 μM stain, two minutes, 48 hour mixed biofilms, n=9
# Description: A Centre for Disease Control (CDC) biofilm reactor was used to culture 48 hour mixed biofilms of Staphylococcus aureus and Pseudomonas aeruginosa. Briefly, biofilms were formed on coupons on reactor rods which were held within the reactor vessel containing a continuously mixed culture of S. aureus and P. aeruginosa at 35° C. Biofilm-containing coupons were removed from the rods, rinsed once by dipping in sterile saline for 5 seconds, then incubated in 10 ml volumes of the following biofilm stains at 100 μM concentration in deionised water, in the dark for two minutes: Erythrosine; Rose Bengal; Alcian Blue; Rhodamine B; Rhodamine 123; Rose Bengal with 2% w/v EDTA and 1% w/v BaCl (RBEB). Following another rinse in saline, nine coupons for each stain were each added to 2 ml volumes of 2% SDS for stomaching at ‘high’ setting for 1 minute then incubated overnight in the dark at 37° C., for digestion. Samples were then spun at 13,000 rpm for 5 minutes to separate the supernatant from digested cell debris. Absorption spectra of the aspired supernatants were then measured in a spectrophotometer and these spectra compared to spectra of known concentrations (100 μM) of each stain in 2% SDS.
# [2] = test system: mixed biofilms of Staphylococcus aureus and Pseudomonas aeruginosa; experiment: Assessment of biofilm stains using the constant-depth biofilm fermenter (CDFF); details: 100 μM stain, two minutes, 4-day mixed biofilms, n=6
# Excerpt: A constant depth biofilm fermenter (CDFF) was used to culture 4-day mixed biofilms of Staphylococcus aureus and Pseudomonas aeruginosa. Briefly, biofilms were formed in recesses in 15 PTFE pans around the rim of a rotating steel turntable onto which inoculum or sterile growth media was allowed to steadily drip. A scraper bar distributed bacterial inoculum or media over the pans as the turntable rotated, maintaining the biofilms at a steady depth. Each pan contained 5 removable plugs, 4 mm in diameter which were recessed to a depth of 300 μm. The resulting biofilms that grew in the plug recesses were reproducible in terms of appearance and microbiological composition and could be removed from the CDFF through a sampling port using sterile instruments. […] Absorption spectra of the aspired supernatants were then measured in a spectrophotometer and these spectra compared to spectra of known concentrations (100 μM) of each stain in 2% SDS.
# [3] = S. aureus biofilm age 4 h, [RB] 60 μM
# [4] = P. aeruginosa biofilm age 4 h, [RB] 60 μM
molecule,measurement,setting,value
O=C([O-])c1c(Cl)c(Cl)c(Cl)c(Cl)c1-c1c2cc(I)c(=O)c(I)c-2oc2c(I)c([O-])c(I)cc12.[Na+].[Na+] [Rose Bengal],"Rose Bengal uptake per sample, Avg",S. aureus biofilms; [3],0
same,"Rose Bengal uptake per sample, single replicates 1-3",S. aureus biofilms; [3],0
same,"Rose Bengal uptake per sample, Avg","S. aureus biofilms; S. aureus biofilm age 4 h, [RB] 300 μM, likely some staining of the filters themselves",1.56
same,"Rose Bengal uptake per sample, single replicates 1-3","S. aureus biofilms; S. aureus biofilm age 4 h, [RB] 300 μM, likely some staining of the filters themselves, listed as RB",1.59 and 1.45 and 1.64
same,"Rose Bengal uptake per sample, Avg","S. aureus biofilms; S. aureus biofilm age 24 h, [RB] 60 μM",1.85
same,"Rose Bengal uptake per sample, single replicates 1-3","S. aureus biofilms; S. aureus biofilm age 24 h, [RB] 60 μM, listed as RB",1.66 and 1.72 and 2.17
same,"Rose Bengal uptake per sample, Avg","S. aureus biofilms; S. aureus biofilm age 24 h, [RB] 300 μM",4.44
same,"Rose Bengal uptake per sample, single replicates 1-3","S. aureus biofilms; S. aureus biofilm age 24 h, [RB] 300 μM, listed as RB",4.82 and 4.55 and 3.95
same,"Rose Bengal uptake per sample, Avg","S. aureus biofilms; S. aureus biofilm age 48 h, [RB] 60 μM",1.24
same,"Rose Bengal uptake per sample, single replicates 1-3","S. aureus biofilms; S. aureus biofilm age 48 h, [RB] 60 μM, listed as RB",1.22 and 1.12 and 1.37
same,"Rose Bengal uptake per sample, Avg","S. aureus biofilms; S. aureus biofilm age 48 h, [RB] 300 μM",5.72
same,"Rose Bengal uptake per sample, single replicates 1-3","S. aureus biofilms; S. aureus biofilm age 48 h, [RB] 300 μM, listed as RB",6.26 and 5.18 and 5.71
same,Rose Bengal uptake by mature biofilms (in words),"S. aureus biofilms; S. aureus, 24 and 48 hours biofilms, 60 μM or 300 μM",dye concentration- and biofilm age-dependent manner
same,"Rose Bengal uptake per sample, Avg",P. aeruginosa biofilms; [4],0
same,"Rose Bengal uptake per sample, single replicates 1-3",P. aeruginosa biofilms; [4],0
same,"Rose Bengal uptake per sample, Avg","P. aeruginosa biofilms; P. aeruginosa biofilm age 4 h, [RB] 300 μM, likely some staining of the filters themselves",1.72
same,"Rose Bengal uptake per sample, single replicates 1-3","P. aeruginosa biofilms; P. aeruginosa biofilm age 4 h, [RB] 300 μM, likely some staining of the filters themselves, listed as RB",1.52 and 1.76 and 1.88
same,"Rose Bengal uptake per sample, Avg","P. aeruginosa biofilms; P. aeruginosa biofilm age 24 h, [RB] 60 μM",1.94
same,"Rose Bengal uptake per sample, single replicates 1-3","P. aeruginosa biofilms; P. aeruginosa biofilm age 24 h, [RB] 60 μM, listed as RB",2.04 and 1.76 and 2.02
same,"Rose Bengal uptake per sample, Avg","P. aeruginosa biofilms; P. aeruginosa biofilm age 24 h, [RB] 300 μM",5.10
same,"Rose Bengal uptake per sample, single replicates 1-3","P. aeruginosa biofilms; P. aeruginosa biofilm age 24 h, [RB] 300 μM, listed as RB",5.05 and 5.84 and 4.41
same,"Rose Bengal uptake per sample, Avg","P. aeruginosa biofilms; P. aeruginosa biofilm age 48 h, [RB] 60 μM",2.39
same,"Rose Bengal uptake per sample, single replicates 1-3","P. aeruginosa biofilms; P. aeruginosa biofilm age 48 h, [RB] 60 μM, listed as RB",3.15 and 1.66 and 2.37
same,"Rose Bengal uptake per sample, Avg","P. aeruginosa biofilms; P. aeruginosa biofilm age 48 h, [RB] 300 μM",7.30
same,"Rose Bengal uptake per sample, single replicates 1-3","P. aeruginosa biofilms; P. aeruginosa biofilm age 48 h, [RB] 300 μM, listed as RB",6.20 and 9.01 and 6.69
same,Rose Bengal uptake by mature biofilms (in words),"P. aeruginosa biofilms; P. aeruginosa, 24 and 48 hours biofilms, 60 μM or 300 μM",dye concentration- and biofilm age-dependent manner
Alcian Blue,biofilm staining expressed as ratio of measured absorption: absorption at 100 1.1M (i.e. concentration) (FIG. 2b),[1],most effective biofilm stain
CCN(Cc1cccc(S(=O)(=O)[O-])c1)c1ccc(C(=C2C=CC(=[N+](CC)Cc3cccc(S(=O)(=O)[O-])c3)C=C2)c2ccc(O)cc2S(=O)(=O)[O-])cc1.[Na+].[Na+] [Fast Green],effectiveness as stain of biofilms grown in the CDFF (FIG. 1),[2],most effective stain
